Measurements from patent US10941158B2, “Pyrazole ACC inhibitors and uses thereof” (Gilead Apollo, LLC, priority 2015, dated 2021).
In brackets after ≈: the same amount, converted by molar mass. Like-named read-outs stand apart in the source and are kept apart here.

What was measured:
[1] = test system: C. krusei ATCC 6258; assay: Anti-Fungal (Candida) Activity Assay, broth microtiter MIC; format: cell-based; settings: Pichia kudriavzevii, read-out: MIC C. krusei ATCC 6258
Procedure: (§1) Compounds of the present invention were evaluated in an Anti-Fungal Activity Assay. An exemplary procedure for the assay, which measures the susceptibility of various Candida species to anti-fungal compounds, follows. Compounds to be tested (including fluconazole and amphotericin B) were dissolved in DMSO to obtain a solution having a concentration of 1 mg/mL. […] All species were grown from frozen stock by directly plating on to freshly prepared Sabouraud Dextrose agar (BD, Difco) and incubated overnight in ambient air at 35° C. for 24 h. A direct suspension was prepared in RPMI 1640+MOPS (Lonza, Biowhittaker) by taking individual colonies from the overnight cultures using sterile swabs soaked in sterile saline. The concentration of the suspension was determined using pre-determined standard curves. […] Broth microtiter MIC challenge plates were prepared following CLSI guidelines (M27-A3, Vol. 28 No. 14). The original CLSI guidelines focused on reading Candida MICs after 48 h of incubation. As reading after only 24 h offers a clear advantage of patient care, QC limits are being established for all drugs at 24 h. That being said there are no known interpretive breakpoints for amphotericin B at 24 h and the current fluconazole interpretive breakpoints are based on a 48 h reading. The MIC for the test compounds were recorded at 48 h. All MIC determinations were achieved by visually comparing the growth found in the antibiotic challenged wells to that of the growth control.

[2] = test system: C. parapsilosis ATCC 22019; assay: as above; format: cell-based; settings: Lodderomyces parapsilosis, read-out: MIC C. parapsilosis ATCC 22019
Procedure: as §1

[3] = test system: C. albicans ATCC 90028; assay: as above; format: cell-based; settings: read-out: MIC C. albicans ATCC 90028
Procedure: as §1

[4] = test system: Phytophthora capsici (Pc); assay: Growth inhibition assay of fungal pathogens; format: cell-based; settings: for IC90: Phytophthora capsici, read-out: Concentration at 90% Inhibition Pc
Procedure: (§2) Compounds of the present invention were evaluated in a growth inhibition assay to determine the ability to control the growth of fungal pathogens, such as Botrtyis cinerea (Bc), Collectotrichum graminicola (Cg). Diplodia maydis (Dm), Fusarium moniliforme (Fm), Fusarium virguliforme (Fv), Phytophthora capsici (Pc), Rhizoctonia solani (Rs), and Septoria tritici (St). Compounds to be tested were dissolved in DMSO at 2.5 mg/ml to produce compound stock solutions (“stocks”). Stocks were diluted with DMSO by a five-fold dilution in a 96-well stock plate, and two sets of final concentrations of 50, 10, and 2 ppm or 2, 0.4, and 0.08 ppm were obtained in vitro. A set of positive controls was also prepared, with various concentrations of Soraphen (2, 0.4, and 0.08 ppm), Metalaxyl (1.1, 0.22, and 0.04 ppm), and Metconazole (2, 0.4, and 0.08 ppm or 0.2, 0.04, and 0.008 ppm) after the five-fold dilutions. Negative controls on each plate included 2% DMSO, water, and a blank (media+2% DMSO). Fungal spores were isolated from previously sub-cultured plates of Botrtyis cinerea (Bc). Collectotrichum graminicola (Cg). Diplodia maydis (Dm), Fusarium moniliforme (Fm), Fusarium virguliforme (Fv), Phytophthora capsici (Pc), and Septoria tritici (St). The isolated spores were diluted to individual concentrations with a 17% V8 liquid media. For Rhizoctonia solani (Rs) and Pythium irregulare, 1.5 mm mycelial plugs were used in place of spores and ¼ Potato Dextrose Broth (PDB) was used for dilution. The spore concentrations and plug sizes were based on growth curves generated at 48 hours for each pathogen. In a second 96-well plate, the spores or mycelial plugs, media, diluted compound solutions, and controls were combined. Once the compound was added, a true final concentration of compound in each well was measured by an OD600 reading, which adjusted for any compound precipitation that might have occurred in the well. Plate readings were repeated at both 24 and 48 hours. The blank negative control was used as a background subtraction. Additional visual ratings were performed at both 24 and 48 hours for checking on precipitation and confirming efficacy. Visual and OD600 ratings of the compounds at 48 hours were compared to the 2% DMSO negative control, and the percent of pathogen growth inhibition was determined based on those values.

[5] = test system: Rhizoctonia solani (Rs); assay: Growth inhibition assay of fungal pathogens; format: cell-based; settings: 48 h, read-out: Concentration at 90% Inhibition Rs
Procedure: as §2

[6] = test system: Septoria tritici (St); assay: Growth inhibition assay of fungal pathogens; format: cell-based; settings: for IC90: Zymoseptoria tritici, read-out: Concentration at 90% Inhibition St
Procedure: as §2

[7] = test system: Botrtyis cinerea (Bc); assay: Growth inhibition assay of fungal pathogens; format: cell-based; settings: 48 h, read-out: Concentration at 90% Inhibition Bc
Procedure: as §2

[8] = test system: Fusarium moniliforme (Fm); assay: Growth inhibition assay of fungal pathogens; format: cell-based; settings: for IC90: Fusarium verticillioides, 48 h, read-out: Concentration at 90% Inhibition Fm
Procedure: as §2

[9] = test system: Fusarium virguliforme (Fv); assay: Growth inhibition assay of fungal pathogens; format: cell-based; settings: 48 h
Procedure: as §2

[10] = test system: Diplodia maydis (Dm); assay: Growth inhibition assay of fungal pathogens; format: cell-based; settings: Stenocarpella maydis, 48 h, read-out: Concentration at 90% Inhibition Dm
Procedure: as §2

[11] = test system: Collectotrichum graminicola (Cg); assay: Growth inhibition assay of fungal pathogens; format: cell-based; settings: 48 h, read-out: Concentration at 90% Inhibition Cg
Procedure: as §2

[12] = target: human (hACC2) ACC2 (Homo sapiens, UniProt O00763); assay: In vitro Acetyl-CoA Carboxylase (ACC) inhibition assay (ADP-Glo), hACC2; format: biochemical
Sequence of human (hACC2) ACC2 (O00763 whole entry): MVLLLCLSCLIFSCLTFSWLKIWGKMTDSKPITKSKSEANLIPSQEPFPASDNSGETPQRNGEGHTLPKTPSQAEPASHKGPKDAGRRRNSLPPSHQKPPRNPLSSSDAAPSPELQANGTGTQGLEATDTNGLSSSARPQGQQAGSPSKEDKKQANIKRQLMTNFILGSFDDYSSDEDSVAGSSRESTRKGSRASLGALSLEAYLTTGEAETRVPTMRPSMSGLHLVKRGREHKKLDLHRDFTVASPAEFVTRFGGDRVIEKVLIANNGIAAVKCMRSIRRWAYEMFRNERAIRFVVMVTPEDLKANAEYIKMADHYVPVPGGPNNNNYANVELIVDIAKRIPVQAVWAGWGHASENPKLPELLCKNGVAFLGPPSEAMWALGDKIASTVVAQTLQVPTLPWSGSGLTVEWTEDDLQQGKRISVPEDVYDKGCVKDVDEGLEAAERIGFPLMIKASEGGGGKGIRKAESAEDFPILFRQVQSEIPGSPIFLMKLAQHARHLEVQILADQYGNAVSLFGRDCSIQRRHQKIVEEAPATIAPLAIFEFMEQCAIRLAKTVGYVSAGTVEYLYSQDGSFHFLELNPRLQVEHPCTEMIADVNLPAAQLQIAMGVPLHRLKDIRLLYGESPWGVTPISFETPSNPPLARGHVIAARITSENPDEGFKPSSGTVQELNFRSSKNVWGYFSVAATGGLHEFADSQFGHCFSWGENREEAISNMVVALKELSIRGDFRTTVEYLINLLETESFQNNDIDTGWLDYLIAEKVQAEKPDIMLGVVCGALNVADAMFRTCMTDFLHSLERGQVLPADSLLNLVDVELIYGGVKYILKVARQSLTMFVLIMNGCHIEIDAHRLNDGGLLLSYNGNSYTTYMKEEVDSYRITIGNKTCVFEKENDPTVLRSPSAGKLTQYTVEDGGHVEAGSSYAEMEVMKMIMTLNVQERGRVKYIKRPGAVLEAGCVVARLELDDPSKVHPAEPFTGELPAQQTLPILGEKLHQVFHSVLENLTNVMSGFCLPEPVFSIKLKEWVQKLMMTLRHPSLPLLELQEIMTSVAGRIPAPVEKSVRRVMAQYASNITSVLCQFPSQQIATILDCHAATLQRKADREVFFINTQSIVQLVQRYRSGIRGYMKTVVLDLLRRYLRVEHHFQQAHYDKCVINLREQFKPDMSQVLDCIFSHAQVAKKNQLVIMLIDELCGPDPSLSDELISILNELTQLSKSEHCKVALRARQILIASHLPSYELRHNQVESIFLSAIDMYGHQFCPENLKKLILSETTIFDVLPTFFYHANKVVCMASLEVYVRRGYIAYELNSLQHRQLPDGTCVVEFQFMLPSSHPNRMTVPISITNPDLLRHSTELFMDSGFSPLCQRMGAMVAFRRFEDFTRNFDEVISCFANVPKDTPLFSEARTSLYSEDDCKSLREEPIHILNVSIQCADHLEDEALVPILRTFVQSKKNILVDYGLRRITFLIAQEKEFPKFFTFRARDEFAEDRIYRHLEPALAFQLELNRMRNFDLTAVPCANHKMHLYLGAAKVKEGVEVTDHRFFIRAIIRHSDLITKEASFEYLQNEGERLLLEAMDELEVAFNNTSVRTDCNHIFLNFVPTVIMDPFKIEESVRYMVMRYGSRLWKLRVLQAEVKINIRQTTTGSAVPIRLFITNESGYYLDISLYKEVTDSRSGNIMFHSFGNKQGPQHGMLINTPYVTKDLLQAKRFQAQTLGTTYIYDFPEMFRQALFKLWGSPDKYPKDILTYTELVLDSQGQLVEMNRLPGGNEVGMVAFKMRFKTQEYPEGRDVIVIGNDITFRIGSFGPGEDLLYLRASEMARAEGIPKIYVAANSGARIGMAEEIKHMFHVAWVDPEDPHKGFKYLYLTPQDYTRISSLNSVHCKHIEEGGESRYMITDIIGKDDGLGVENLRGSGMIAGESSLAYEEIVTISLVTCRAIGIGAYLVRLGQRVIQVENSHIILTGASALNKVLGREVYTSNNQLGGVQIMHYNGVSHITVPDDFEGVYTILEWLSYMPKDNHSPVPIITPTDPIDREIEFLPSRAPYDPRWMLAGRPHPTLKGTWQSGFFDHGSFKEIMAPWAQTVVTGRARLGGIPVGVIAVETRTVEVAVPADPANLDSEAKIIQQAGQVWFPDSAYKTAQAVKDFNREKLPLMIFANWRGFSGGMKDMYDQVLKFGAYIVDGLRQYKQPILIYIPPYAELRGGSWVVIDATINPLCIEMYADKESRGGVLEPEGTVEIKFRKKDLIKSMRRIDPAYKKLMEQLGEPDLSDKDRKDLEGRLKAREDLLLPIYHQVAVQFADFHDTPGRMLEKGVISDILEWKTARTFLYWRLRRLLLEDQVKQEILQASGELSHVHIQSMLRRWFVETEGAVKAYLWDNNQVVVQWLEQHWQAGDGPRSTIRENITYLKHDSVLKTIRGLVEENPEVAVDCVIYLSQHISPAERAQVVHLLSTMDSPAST
Procedure: The detailed procedure is as follows. […] 10 μL ADP glo reagent was added. […] 20 μL kinase detection reagent was added.
“NA” stands for “not assayed.”

[13] = ATCC6258, 3 replicates, MIC recorded at 48 h
[14] = ATCC22019, 3 replicates, MIC recorded at 48 h
[15] = ATCC90028, 3 replicates, MIC recorded at 48 h
[16] = Table 4a, 48 hours, read-out: Concentration at 90% Inhibition Fv
[17] = Table 4b, 48 hours, read-out: Concentration at 90% Inhibition Fv

Row | Compound | IC90 ([5]; Table 4a) | IC90 ([5]; Table 4b) | IC90 ([7]; Table 4a) | IC90 ([7]; Table 4b) | IC90 ([10]; Table 4a) | IC90 ([10]; Table 4b) | IC90 ([11]; Table 4a) | IC90 ([11]; Table 4b) | IC50 [12] | MIC [1, 13] | MIC [2, 14] | MIC [3, 15] | IC90 ([4]; Table 4a, 48 hours) | Concentration at 90% Inhibition Pc ([4]; Table 4b, 48 hours) | Concentration at 90% Inhibition St ([6]; Table 4b, 48 hours) | IC90 ([6]; Table 4a, 48 hours) | IC90 ([8]; Table 4a, 48 hours) | IC90 ([8]; Table 4b, 48 hours) | IC90 [9, 16] | IC90 [9, 17] | other results
1 | COc1ccccc1[C@H](Cn1c(=O)n(C(C)(C)C(=O)NC(C)C)c(=O)c2c(C)c(-n3cccn3)sc21)OC(C)C [Compound I-17, (R)-2-(l-(2-isopropoxy-2-(2-methoxyphenyl)ethyl)-5-methyl-2,4-dioxo-6-(H-pyrazol-1-yl)-1,4-dihydrothieno[2,3-d]pyrimidin-3(2H)-yl)-N-isopropyl-2-methylpropanamide] | > 50 µg/mL | > 50 µg/mL | 2 µg/mL (≈ 3.52 µM) | 2 µg/mL (≈ 3.52 µM) | 2 µg/mL (≈ 3.52 µM) | 2 µg/mL (≈ 3.52 µM) | > 50 µg/mL | 10 µg/mL (≈ 17.6 µM) | 3 to 10 nM |  |  |  |  |  |  |  |  |  |  |  | MIC ([1]; ATCC6258, 48 h): 0.25 to 1 µg/mL (≈ 0.44 to 1.76 µM); MIC ([2]; ATCC22019, 48 h): 0.25 to 1 µg/mL (≈ 0.44 to 1.76 µM); MIC ([3]; ATCC90028, 48 h): 0.25 to 1 µg/mL (≈ 0.44 to 1.76 µM); IC90 ([4]; 48 h, Table 4a): > 50 µg/mL; IC90 ([4]; 48 h, Table 4b): > 50 µg/mL; IC90 ([6]; 48 h, Table 4a): > 50 µg/mL; IC90 ([6]; 48 h, Table 4b): > 50 µg/mL; IC90 [8]: 0.4 µg/mL (≈ 0.705 µM); Concentration at 90% Inhibition Fm ([8]; Table 4b, 48 hours): A (“A” provided a compound concentration of 0.4 ppm at 90% inhibition of fungal pathogens); IC90 ([9]; read-out: Concentration at 90% Inhibition Fv, Table 4a, 48 hours): 0.4 µg/mL (≈ 0.705 µM); IC90 ([9]; read-out: Concentration at 90% Inhibition Fv, Table 4b, 48 hours): 0.4 µg/mL (≈ 0.705 µM)
2 | COc1ccc(F)cc1[C@H](Cn1c(=O)n(C(C)(C)C(=O)N2CCCC2)c(=O)c2c(C)c(-n3cccn3)sc21)OC1CCC(=O)CC1 [Compound I-27, (R)-1-(2-(5-fluoro-2-methoxyphenyl)-2-((4-oxocyclohexyl)oxy)ethyl)-5-methyl-3-(2-methyl-1-oxo-1-(pyrrolidin-1-yl)propan-2-yl)-6-(1H-pyrazol-1-yl)thieno[2,3-d]pyrimidine-2,4(1H,3H)-dione] | 2 µg/mL (≈ 3.07 µM) | 2 µg/mL (≈ 3.07 µM) | 2 µg/mL (≈ 3.07 µM) | 2 µg/mL (≈ 3.07 µM) | > 50 µg/mL | 10 µg/mL (≈ 15.3 µM) | 10 µg/mL (≈ 15.3 µM) | 2 µg/mL (≈ 3.07 µM) | 10 to 40 nM | 1.1 to 2 µg/mL (≈ 1.69 to 3.07 µM) | 1.1 to 2 µg/mL (≈ 1.69 to 3.07 µM) | 1.1 to 2 µg/mL (≈ 1.69 to 3.07 µM) | > 50 µg/mL | D (“D” provided a compound concentration of >50 ppm at 90% inhibition of fungal pathogens) | D (“D” provided a compound concentration of >50 ppm at 90% inhibition of fungal pathogens) | > 50 µg/mL | 0.4 µg/mL (≈ 0.614 µM) | 0.4 µg/mL (≈ 0.614 µM) | 10 µg/mL (≈ 15.3 µM) | 2 µg/mL (≈ 3.07 µM) | 
3 | COc1ccccc1[C@H](Cn1c(=O)n(C(C)(C)C(=O)N2CCCC2)c(=O)c2c(C)c(-n3cccn3)sc21)OCC(C)C [Compound I-22, (R)-1-(2-isobutoxy-2-(2-methoxyphenyl)ethyl)-5-methyl-3-(2-methyl-1-oxo-1-(pyrrolidin-1-yl)propan-2-yl)-6-(1H-pyrazol-1-yl)thieno[2,3-d]pyrimidine-2,4(1H,3H)-dione] | 2 µg/mL (≈ 3.37 µM) | 2 µg/mL (≈ 3.37 µM) | 2 µg/mL (≈ 3.37 µM) | 2 µg/mL (≈ 3.37 µM) | 2 µg/mL (≈ 3.37 µM) | 2 µg/mL (≈ 3.37 µM) | 2 µg/mL (≈ 3.37 µM) | 2 µg/mL (≈ 3.37 µM) | 3 to 10 nM | 0.25 to 1 µg/mL (≈ 0.421 to 1.68 µM) | 1.1 to 2 µg/mL (≈ 1.85 to 3.37 µM) | 0.25 to 1 µg/mL (≈ 0.421 to 1.68 µM) | > 50 µg/mL | D (“D” provided a compound concentration of >50 ppm at 90% inhibition of fungal pathogens) | D (“D” provided a compound concentration of >50 ppm at 90% inhibition of fungal pathogens) | > 50 µg/mL | 2 µg/mL (≈ 3.37 µM) | 0.4 µg/mL (≈ 0.674 µM) | > 50 µg/mL | 10 µg/mL (≈ 16.8 µM) | 
4 | COc1ccc(F)cc1[C@H](Cn1c(=O)n(C(C)(C)C(N)=O)c(=O)c2c(C)c(-n3cccn3)sc21)OC1CCOCC1 [Compound I-4, (R)-2-(1-(2-(5-fluoro-2-methoxyphenyl)-2-((tetrahydro-2H-pyran-4-yl)oxy)ethyl)-5-methyl-2,4-dioxo-6-(1H-pyrazol-1-yl)-1,4-dihydrothieno[2,3-d]pyrimidin-3(2H)-yl)-2-methylpropanamide] | > 50 µg/mL | > 50 µg/mL | 2 µg/mL (≈ 3.41 µM) | 2 µg/mL (≈ 3.41 µM) | > 50 µg/mL | > 50 µg/mL | > 50 µg/mL | 10 µg/mL (≈ 17.1 µM) | 10 to 40 nM | 2.1 to 4 µg/mL (≈ 3.59 to 6.83 µM) | > 4.1 µg/mL | > 4.1 µg/mL | > 50 µg/mL | D (“D” provided a compound concentration of >50 ppm at 90% inhibition of fungal pathogens) | D (“D” provided a compound concentration of >50 ppm at 90% inhibition of fungal pathogens) | > 50 µg/mL | 2 µg/mL (≈ 3.41 µM) | 2 µg/mL (≈ 3.41 µM) | > 50 µg/mL | > 50 µg/mL | 
